Target: T1, human renin (Homo sapiens, UniProt P00797)
T1 sequence (P00797 67-406): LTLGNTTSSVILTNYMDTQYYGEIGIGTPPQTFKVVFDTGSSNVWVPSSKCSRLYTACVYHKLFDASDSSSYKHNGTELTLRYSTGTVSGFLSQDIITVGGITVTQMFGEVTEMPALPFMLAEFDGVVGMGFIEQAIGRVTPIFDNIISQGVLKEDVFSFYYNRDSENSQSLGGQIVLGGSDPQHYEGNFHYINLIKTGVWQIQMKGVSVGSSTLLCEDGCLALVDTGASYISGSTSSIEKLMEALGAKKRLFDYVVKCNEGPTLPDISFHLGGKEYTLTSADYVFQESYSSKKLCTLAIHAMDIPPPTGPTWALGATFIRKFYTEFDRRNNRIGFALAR
Assay: Determination of Renin IC50 by tGFP FRET Assay
Assay type: biochemical
Details: Human recombinant renin, tandem GFP substrate 650 nM, renin and compound incubated 60 minutes before substrate, pH 7.4
Description: Determination of Renin IC50 by tGFP FRET Assay
The tGFP FRET (Green Fluorescent Protein Fluorescence Resonance Energy Transfer) assay utilizes a tandem GFP substrate (60 kDa) containing nine amino acid recognition sequences for human renin flanked by two GFP proteins. The assay is used to determine the ability of a compound to act as an inhibitor of renin enzymatic activity by determination of that concentration of test compound that inhibits by 50% (IC50) the ability of renin to cleave the tandem GFP substrate. The IC50 values are determined over an 11-point curve at concentrations of 100 μM to […]. Each compound concentration used to construct the curve was dependent on renin inhibitor potency. For example, subnanomolar IC50 values were determined over an 11-point curve at concentrations of 10 μM to […]. All other IC50 values were determined over an 11-point curve at concentrations of 100 μM to 0.0065 μM. The concentrations were achieved by diluting a 9.1 nM stock of Human recombinant renin in the appropriate amount of buffer containing 50 mM HEPES, 1 mM EDTA, 1% PEG (8000 MW), 1 mM DTT, 0.1% BSA, pH 7.4 to achieve the final concentration of 50.4 μIU. The tGFP substrate stock solution of 43 μM was diluted with the appropriate amount of the above buffer to obtain the final concentration of 650 nM. In addition, 1 μl of the compound is diluted in DSMO to represent an […] log scale (5% final). The renin and compound are added to a 384 capacity plate by an automated robot (BIOMEK). The plate is incubated for 60 minutes; upon completion the tGFP substrate is added.
The IC50 is determined by monitoring the increase in […] at 432/432 nm excitation, 530/475 nm emission with a cutoff at 515/455 nm, in a fluorometric plate reader.

Row | SMILES | IC50
1 | O=C1CCC(=O)N1CCOc1cccc(CN[C@H]2CNCC[C@H]2c2ccc(OCCCOCc3ccccc3F)cc2)c1 (racemic) [1-(2-{3-[(4-{4-[3-(2-Fluoro-benzyloxy)-propoxy]-phenyl}-piperidin-3-ylamino)-methyl]-phenoxy}-ethyl)-pyrrolidine-2,5-dione] | 1400 nM
2 | O=C1CCCN1CCOc1cccc(CN[C@H]2CNCC[C@H]2c2ccc(OCCCOCc3ccccc3F)cc2)c1 (racemic) [1-(2-{3-[(4-{4-[3-(2-Fluoro-benzyloxy)-propoxy]-phenyl}-piperidin-3-ylamino)-methyl]-phenoxy}-ethyl)-pyrrolidine-2-one] | 932 nM
3 | COC(=O)c1cccc(CN[C@@H]2CNCC[C@@H]2c2ccc(OCCCOCc3ccccc3F)cc2)n1 (racemic) [6-[(4-{4-[3-(2-Fluoro-benzyloxy)-propoxy]-phenyl}-piperidin-3-ylamino)-methyl]-pyridine-2-carboxylic acid methyl ester] | 6980 nM
4 | COc1ccccc1COCCCOc1ccc([C@H]2CCNC[C@H]2NCc2ccc3cc(O)ccc3c2)cc1 (racemic) [6-[(4-{4-[3-(2-methoxy-benzyloxy)-propoxy]-phenyl}-piperidin-3-ylamino)-methyl]-naphthalen-2-ol] | > 1000 nM
5 | COc1ccccc1COCCCOc1ccc([C@H]2CCNC[C@H]2NCc2ccc3[nH]ccc3c2)cc1 (racemic) [(1H-indol-5-ylmethyl)-(4-{4-[3-(2-methoxy-benzyloxy)-propoxy]-phenyl}-piperidin-3-yl)-amine] | > 1000 nM
6 | Fc1ccccc1COCCCOc1ccc([C@@H]2CCNC[C@@H]2NCc2ccc(F)c(C(F)(F)F)c2)cc1 (racemic) [(4-{4-[3-(2-fluoro-benzyloxy)-propoxy]-phenyl}-piperidin-3-yl)-(4-fluoro-3-trifluoromethyl-benzyl)-amine] | 454 nM
7 | COc1ccccc1COCCCOc1ccc([C@H]2CCNC[C@H]2NCc2ccc3c(c2)NCCC3)cc1 (racemic) [(4-{4-[3-(2-methoxy-benzyloxy)-propoxy]-phenyl}-piperidin-3-yl)-(1,2,3,4-tetrahydro-quinolin-7-ylmethyl)-amine] | 226 nM
8 | COc1ccc2cc(CN[C@@H]3CNCC[C@@H]3c3ccc(OCCCOCc4ccccc4OC)cc3)ccc2c1 (racemic) [(4-{4-[3-(2-methoxy-benzyloxy)-propoxy]-phenyl}-piperidin-3-yl)-(6-methoxy-naphthalen-2-ylmethyl)-amine] | 74.3 nM
9 | COc1ccccc1COCCCOc1ccc([C@H]2CCNC[C@H]2N(C)Cc2ccc3ccccc3c2)cc1 (racemic) [(4-{4-[3-(2-methoxy-benzyloxy)-propoxy]-phenyl}-piperidin-3-yl)-methyl-naphthalen-2-ylmethyl-amine] | 573 nM
10 | COc1ccccc1COCCCOc1ccc([C@H]2CCNC[C@H]2NCc2ccc3ccccc3c2)cc1 (racemic) [(4-{4-[3-(2-methoxy-benzyloxy)-propoxy]-phenyl}-piperidin-3-yl)-naphthalen-2-ylmethyl-amine] | 87 nM
11 | COc1ccccc1COCCCOc1ccc([C@H]2CCNC[C@H]2NCc2ccc3cccnc3c2)cc1 (racemic) [(4-{4-[3-(2-methoxy-benzyloxy)-propoxy]-phenyl}-piperidin-3-yl)-quinolin-7-ylmethyl-amine] | 175 nM
12 | O=S(=O)(N[C@@H]1CNCC[C@@H]1c1ccc(OCCCOCc2ccccc2F)cc1)c1ccc2ccccc2c1 (racemic) [Naphthalene-2-sulfonic acid (4-{4-[3-(2-fluoro-benzyloxy)-propoxy]-phenyl}-piperidin-3-yl)-amide] | 693 nM
13 | COc1ccccc1COCCCOc1ccc([C@H]2CCNC[C@H]2NCc2ccc3c(c2)N(CCN(C)C)CCC3)cc1 (racemic) [[1-(2-dimethylamino-ethyl)-1,2,3,4-tetrahydro-quinolin-7-ylmethyl]-(4-{4-[3-(2-methoxybenzyloxy)-propoxy]-phenyl}-piperidin-3-yl)-amine] | > 1000 nM
14 | COc1ccccc1COCCCOc1ccc([C@H]2CCNC[C@H]2NCc2ccc3occc3c2)cc1 (racemic) [benzofuran-5-ylmethyl-(4-{4-[3-(2-methoxy-benzyloxy)-propoxy]-phenyl}-piperidin-3-yl)-amine] | 393 nM
15 | COc1ccccc1COCCCOc1ccc([C@H]2CCNC[C@H]2NC(=O)c2cccc3ccccc23)cc1 (racemic) [naphthalene-1-carboxylic acid (4-{4-[3-(2-methoxy-benzyloxy)-propoxy]-phenyl}-piperidin-3-yl)-amide] | > 1000 nM
16 | COC(=O)COc1cccc(CN[C@H]2CNCC[C@H]2c2ccc(OCCCOCc3ccccc3F)cc2)c1 (racemic) [{3-[(4-{4-[3-(2-Fluoro-benzyloxy)-propoxy]-phenyl}-piperidin-3-ylamino)-methyl]-phenoxy}-acetic acid methyl ester] | 924 nM
17 | COC(=O)c1cccc2cc(CN[C@@H]3CNCC[C@@H]3c3ccc(OCCCOCc4ccccc4OC)cc3)ccc12 [6-[(4-[3-(2-methoxy-benzyloxy)-propoxyl]-phenyl}-piperidin-3-ylamino)-methyl]-naphthalene-1-carboxylic acid methyl ester] | 282 nM
18 | COc1ccccc1COCCCOc1ccc([C@H]2CCNC[C@H]2NCc2ccc3c(C(=O)O)cccc3c2)cc1 [6-[(4-[4-(2-methoxy-benzyloxy)-propoxyl]-phenyl}-piperidin-3-ylamino)-methyl]-naphthalene-1-carboxylic acid] | 2600 nM
19 | COC(=O)c1ccc2cc(CN[C@@H]3CNCC[C@@H]3c3ccc(OCCCOCc4ccccc4F)cc3)ccc2c1 [6-[(4-{4-[3-(2-Fluoro-benyloxy)-propoxy]-phenyl}-piperidin-3-ylamino)-methyl]-naphthalene-2-carboxylic acid methyl ester] | 877 nM
20 | O=C(O)c1ccc2cc(CN[C@@H]3CNCC[C@@H]3c3ccc(OCCCOCc4ccccc4F)cc3)ccc2c1 [6-[(4-{4-[3-(2-Fluoro-benyloxy)-propoxy]-phenyl}-piperidin-3-ylamino)-methyl]-naphthalene-2-carboxylic acid] | > 1000 nM
21 | COC(=O)c1ccc2cc(CN[C@@H]3CNCC[C@@H]3c3ccc(OCCCOCc4ccccc4OC)cc3)ccc2c1 [6-[(4-{4-[3-(2-Methoxy-benyloxy)-propoxy]-phenyl}-piperidin-3-ylamino)-methyl]-naphthalene-2-carboxylic acid methyl ester] | 329 nM
